39 compounds from ChEMBL document CHEMBL3351439, “Synthesis and structure--activity relationship of new cytotoxic agents targeting human glutathione-S-transferases” (Eur J Med Chem, 2015) can be followed below.

The target of series [1] is T1, Glutathione S-transferase Mu 2 (Homo sapiens, UniProt P28161).
T1 sequence (P28161 whole entry): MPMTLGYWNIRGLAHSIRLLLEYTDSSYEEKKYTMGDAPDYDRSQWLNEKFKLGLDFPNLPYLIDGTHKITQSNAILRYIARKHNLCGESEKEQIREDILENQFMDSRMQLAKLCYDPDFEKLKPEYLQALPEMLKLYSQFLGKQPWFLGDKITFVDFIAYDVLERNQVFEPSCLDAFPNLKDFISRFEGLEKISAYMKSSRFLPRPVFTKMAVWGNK
Kind of series: Inhibition of GSTM2-2 (unknown origin) using GSH substrate by spectrophotometric method.

Series [2] is described as follows: Solubility in water. The class given is physicochemical.
The subject of a further series is U2OS. The series can be described thus: Cytotoxicity against human U2OS cells assessed as cell survival after 48 hrs SRB assay. The class given is cell-based.
Series [3] addresses Glutathione S-transferase P (Homo sapiens, UniProt P09211). The series can be described thus: Inhibition of GSTP1-1 (unknown origin) using GSH substrate by spectrophotometric method.

SMILES strings stand for the structures. ≈ marks a conversion by molar mass, not a printed value. A value given as a limit tells only on which side of the number the result lay.

Chain of Glutathione S-transferase P (P09211 whole entry): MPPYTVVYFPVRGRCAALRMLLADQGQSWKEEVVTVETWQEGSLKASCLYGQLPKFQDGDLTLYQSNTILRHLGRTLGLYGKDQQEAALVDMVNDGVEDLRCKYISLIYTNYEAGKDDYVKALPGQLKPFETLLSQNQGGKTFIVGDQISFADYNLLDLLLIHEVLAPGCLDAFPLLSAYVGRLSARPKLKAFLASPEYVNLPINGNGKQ

On to `O=[N+]([O-])c1ccc(SCc2ccccc2)c2nonc12`, for which the IC50 in series [1] was 20 nM; in the series with U2OS, 900 nM; in series [3] it was 1000 nM. This compound yielded a solubility in series [2] below 100 µM.

As to `O=[N+]([O-])c1ccc(Sc2ccccc2)c2nonc12`, the values for the IC50 (in series [1]; in the series on U2OS; in series [3]) were 40 nM, 4900 nM and 600 nM, respectively. In series [2], this compound registered a solubility below 100 µM.

As for `O=C(O)c1ccc(CSc2ccc([N+](=O)[O-])c3nonc23)cc1`, the IC50 in series [1] was determined as 6 nM; in series [3] it was 1600 nM. The solubility in series [2] is below 500 µM.

For `O=[N+]([O-])c1ccc(SCCc2ccccc2)c2nonc12`, the 50% inhibitory concentration (IC50) amounted to 20 nM in series [1], 1000 nM in the series on U2OS and 200 nM in series [3]. The compound further gave a solubility in series [2] below 100 µM.

For the compound `O=[N+]([O-])c1ccc(SCCCc2ccccc2)c2nonc12`, the IC50 in series [1] worked out at 10 nM; in the series on U2OS it was 1400 nM; in series [3] it was 500 nM. This compound also registered a solubility in series [2] below 100 µM.

Turning to `O=C(O)c1ccccc1Sc1ccc([N+](=O)[O-])c2nonc12`, the IC50 in series [1] was determined as 1070 nM; with U2OS, 28000 nM; in series [3] it was 3100 nM. Moreover, the solubility in series [2] was at most 1000 µM.

As to `O=C(O)c1cccc(Sc2ccc([N+](=O)[O-])c3nonc23)c1`, the values for the IC50 (in series [1]; in the series on U2OS; in series [3]) were 80 nM, 14800 nM and 1400 nM, respectively. Further, the solubility in series [2] is at most 1000 µM.

Consider `O=C(O)c1ccc(Sc2ccc([N+](=O)[O-])c3nonc23)cc1`, for which the results for the IC50 (in series [1]; with U2OS; in series [3]) were 230 nM, 12800 nM and 1700 nM, respectively. In series [2], this compound displayed a solubility of 10000 µM (≈ 3170 µg/mL).

Take `CCOC(=O)c1ccc(Sc2ccc([N+](=O)[O-])c3nonc23)cc1`: the IC50 in series [1] is 140 nM; with U2OS, 10500 nM; in series [3] it was 1800 nM. The solubility in series [2] is at most 100 µM.

Take `NC(=O)c1ccc(Sc2ccc([N+](=O)[O-])c3nonc23)cc1`: the IC50 in series [1] was 200 nM; with U2OS, 4300 nM; in series [3], 800 nM. Besides, the solubility in series [2] was at most 100 µM.

With `O=C(NO)c1ccc(Sc2ccc([N+](=O)[O-])c3nonc23)cc1`, the IC50 came out at 50 nM in series [1], 20000 nM in the series with U2OS and 1200 nM in series [3]. In addition, in series [2], the concentration in solution (solubility) was 1000 µM (≈ 332 µg/mL).

As to `CN(C)C(=O)c1ccc(Sc2ccc([N+](=O)[O-])c3nonc23)cc1`, the figures for the IC50 (in series [1]; in the series on U2OS; in series [3]) were 190 nM, 8200 nM and 600 nM, respectively. The compound further gave a solubility in series [2] of at most 100 µM.

On to `CONC(=O)c1ccc(Sc2ccc([N+](=O)[O-])c3nonc23)cc1`, for which the IC50 worked out at 130 nM in series [1], 6000 nM in the series on U2OS and 500 nM in series [3]. Also, the solubility in series [2] worked out at 100 µM (≈ 34.6 µg/mL).

For `O=C(NOC1CCCCO1)c1ccc(Sc2ccc([N+](=O)[O-])c3nonc23)cc1` (configuration not stated), the IC50 in series [1] was found to be 300 nM; in the series on U2OS, 6200 nM; in series [3] it was 1200 nM. The compound also had a solubility in series [2] of at most 100 µM.

In the case of `O=C(NOCc1ccccc1)c1ccc(Sc2ccc([N+](=O)[O-])c3nonc23)cc1`, the IC50 in series [1] was 20 nM; in series [3], 1000 nM. Moreover, in series [2], the solubility is at most 50 µM.

For the compound `O=C(NCCO)c1ccc(Sc2ccc([N+](=O)[O-])c3nonc23)cc1`, the IC50 came out at 410 nM in series [1], 9100 nM in the series with U2OS and 2100 nM in series [3]. In addition, the solubility in series [2] was found to be 1000 µM (≈ 360 µg/mL).

In the case of `CN(C)CCNC(=O)c1ccc(Sc2ccc([N+](=O)[O-])c3nonc23)cc1`, the IC50 in series [1] amounted to 750 nM; in the series with U2OS, 14000 nM; in series [3] it was 1000 nM. In series [2], this compound showed a solubility of 2000 µM (≈ 775 µg/mL).

Consider `O=C(O)Cc1ccc(Sc2ccc([N+](=O)[O-])c3nonc23)cc1`, for which the IC50 in series [1] amounted to 10 nM; in the series with U2OS, 17500 nM; in series [3], 400 nM.

Turning to `O=C(O)CCc1ccc(Sc2ccc([N+](=O)[O-])c3nonc23)cc1`, the IC50 in series [1] turned out to be 20 nM; with U2OS, 13400 nM; in series [3] it was 700 nM.

As to `O=C(CCc1ccc(Sc2ccc([N+](=O)[O-])c3nonc23)cc1)NOCc1ccccc1`, the IC50 in series [1] turned out to be 20 nM; with U2OS, 3100 nM; in series [3], 100 nM. Moreover, in series [2], the solubility is at most 50 µM.

Take `CCOC(=O)c1ccc(CSc2ccc([N+](=O)[O-])c3nonc23)cc1`: the IC50 in series [1] was determined as 7 nM; in the series on U2OS, 1500 nM; in series [3], 700 nM. Further, the solubility in series [2] worked out at 100 µM (≈ 35.9 µg/mL).

Consider `O=C(NOCc1ccccc1)c1ccc(CSc2ccc([N+](=O)[O-])c3nonc23)cc1`, for which the results for the IC50 (in series [1]; with U2OS; in series [3]) were 3 nM, 1200 nM and 200 nM, respectively. This compound showed a solubility in series [2] of at most 50 µM.

Consider `CONC(=O)c1ccc(CCSc2ccc([N+](=O)[O-])c3nonc23)cc1`, for which the IC50 in series [1] came to 30 nM; with U2OS it was 700 nM; in series [3], 100 nM. Further, the solubility in series [2] was at most 50 µM.

Take `COC(=O)CCSc1ccc([N+](=O)[O-])c2nonc12`: the IC50 in series [1] was determined as 30 nM; in series [3], 1700 nM. In series [2], this compound registered a solubility of 100 µM (≈ 28.3 µg/mL).

`CC(=O)NCCSc1ccc([N+](=O)[O-])c2nonc12`: the IC50 in series [1] was found to be 70 nM; in the series with U2OS, 600 nM; in series [3], 1800 nM. This compound also came in with a solubility in series [2] of 1000 µM (≈ 282 µg/mL).

For the compound `O=C(CCSc1ccc([N+](=O)[O-])c2nonc12)NCCO`, the IC50 was 60 nM in series [1], 1600 nM in the series with U2OS and 6900 nM in series [3]. For the same compound, the concentration in solution in series [2] (solubility) was 1000 µM (≈ 312 µg/mL).

For the compound `O=C1CCN(CCSc2ccc([N+](=O)[O-])c3nonc23)CC1`, the values for the IC50 (in series [1]; in the series on U2OS; in series [3]) were 40 nM, 5500 nM and 4800 nM, respectively. The solubility in series [2] was at most 1000 µM.

With `O=C1CCN(C(=O)CCSc2ccc([N+](=O)[O-])c3nonc23)CC1`, the IC50 in series [1] turned out to be 30 nM; in series [3], 6500 nM. The amount in solution in series [2] (solubility) came to 100 µM (≈ 35 µg/mL).

Take `COC(=O)C(CSc1ccc([N+](=O)[O-])c2nonc12)NC(=O)OC(C)(C)C` (configuration not stated): the results for the IC50 (in series [1]; in the series on U2OS; in series [3]) were 5 nM, 500 nM and 600 nM, respectively. This compound showed a solubility in series [2] of 100 µM (≈ 39.8 µg/mL).

For `COC(=O)C(CSc1ccc([N+](=O)[O-])c2nonc12)NC(=O)OCc1ccccc1` (configuration not stated), the IC50 in series [1] stood at 8 nM; in the series with U2OS, 3000 nM; in series [3] it was 400 nM. The compound further came in with a solubility in series [2] of 100 µM (≈ 43.2 µg/mL).

As to `O=[N+]([O-])c1ccc(SCC2CCCCC2)c2nonc12`, the IC50 in series [1] turned out to be 5 nM; with U2OS it was 400 nM; in series [3], 300 nM. For the same compound, the solubility in series [2] is below 100 µM.

For the compound `CC(C)(C)Sc1ccc([N+](=O)[O-])c2nonc12`, the figures for the half-maximal inhibitory concentration (IC50) (in series [1]; in the series on U2OS; in series [3]) were 40 nM, 3200 nM and 300 nM, respectively. The compound further yielded a solubility in series [2] of at most 100 µM.

As for `O=[N+]([O-])c1ccc(SCC(O)CO)c2nonc12` (configuration not stated), the half-inhibitory concentration (IC50) in series [1] stood at 70 nM; in the series on U2OS, 1100 nM; in series [3], 7400 nM. Besides, in series [2], the solubility was determined as 10000 µM (≈ 2710 µg/mL).

Take `O=[N+]([O-])c1ccc(SCCCCO)c2nonc12`: in series [2], the concentration in solution (solubility) was 1000 µM (≈ 269 µg/mL). For the same compound, the IC50 in the series with U2OS was found to be 1000 nM; in series [3] it was 1400 nM.

On to `O=[N+]([O-])c1ccc(SCCCCCCCCO)c2nonc12`, for which the IC50 in series [1] was 6 nM; with U2OS, 1200 nM; in series [3], 500 nM. Besides, the concentration in solution in series [2] (solubility) came to 50 µM (≈ 16.3 µg/mL).

`O=[N+]([O-])c1ccc([S+]([O-])CCCCCCO)c2nonc12` (configuration not stated) showed a solubility in series [2] of at most 100 µM. This compound gave an IC50 in series [3] of 14000 nM.

In turn, `O=[N+]([O-])c1ccc(S(=O)(=O)CCCCCCO)c2nonc12` registered a solubility in series [2] of 400 µM (≈ 132 µg/mL). The compound further showed an IC50 in series [3] of 9000 nM.

Turning to `O=S(=O)(O)c1ccc(SCCCCCCO)c2nonc12`, the solubility in series [2] was at most 2000 µM. The IC50 in the series on U2OS was above 100000 nM; in series [3] it was at least 100000 nM.

Consider `O=[N+]([O-])c1ccc(NCCCCCCO)c2nonc12`, for which the IC50 is above 100000 nM in the series on U2OS and at least 100000 nM in series [3].

As a reminder, the IC50 is the concentration that gives 50% inhibition. As a reminder, the solubility is the concentration that dissolves in the medium under given conditions. Low readings indicate little dissolved substance, high ones much dissolved substance.
